# Where two headings read alike, the source gives them in different places.
# Experiments:
# CD4+ T cells = test: Flow cytometry of splenocyte T cells from MOG35-55 EAE mice; type: in vivo, mouse; details: splenocytes, 10 days treatment, FIG. 14C-F
# Method: Flow cytometry. Cells were incubated with anti-mouse CD16/CD32 antibody (2.4G2) diluted in PBS with 2% FBS, and 2 mM EDTA at 4° C. for 15 min to block Fc receptor binding. Cells were stained with fluorescent-conjugated antibodies: CD3 (17A2), CD4 (GK1.5), CD8 (53-6.7), CD62L (MEL-14), CD44 (1M7), CD25 (3C7), CD11b (M1/70), CD45 (30-F11), and MHC II (M5/114.15.2). For surface labeling of GGT1, unconjugated mouse monoclonal anti-GGT1 (1:100; ab55138, Abcam) was incubated with surface markers for 1 hr at 4° C. Then FITC conjugated species-specific secondary antibody (1:100) was added for 1 hr at 4° C. For intracellular staining of IFN-γ and IL-17A, T cells were stimulated for 4 hr with Cell Activation Cocktail (BioLegend). Cells were then fixed with Cytofix/Cytoperm solution (BD Bioscience) and stained with antibodies to IL-17A (TC11-18H10.1), or IFN-γ (XMG1.2). Foxp3 (FJK-16S) staining was performed according to the manufacturer's protocol (eBioscience). Cells were analyzed by flow cytometry on an LSR II (BD Biosciences) with FlowJo software (Tree Star Inc.). Antibodies were purchased from BioLegend, BD Biosciences, or eBioscience.
# [1] = tested on: LPS-induced microglia activation; test: Image-based assay of LPS-induced microglia activation (HTS and dose response); type: cell-based, rat
# GGT = GGT activity in substantia nigra after stereotactic LPS injection; type: in vivo, mouse; details: 5 mg/kg i.p., 12 h after LPS, FIG. 15a
# Method: Stereotactic LPS injection and drug treatment. Mice were anaesthetized with isoflurane and placed in a stereotactic apparatus (David Kopf Instruments). LPS (Sigma-Aldrich) was dissolved in endotoxin-free distilled water (HyClone) and was diluted to 1 μg/ml with PBS. LPS (2 μl of 1 μg/ml) or PBS was slowly injected (0.3 μl/min) using a 10-μl Hamilton syringe attached to a 33-G needle into the substantia nigra at coordinates (anteroposterior, 3.0 mm; mediolateral, 1.3 mm; dorsoventral, 4.7 mm from the bregma, according to Paxinos and Watson) Animals received acivicin (5 mg/kg) or saline intraperitoneally beginning 5 days before LPS injection and for 7 days after LPS injection. After 12 h of the LPS injection, the substantia nigra area was immediately collected on ice and kept at −80° C. for later analysis of GGT activity. After 7 d of the LPS injection, mice were perfused with 4% PFA, and the brains were post-fixed in 4% PFA overnight at 4° C. […] Images were acquired with all-in-one BZ-X700 fluorescence microscope. Images were quantified using NIH ImageJ (version 1.50) by blinded observers.
# [2] = type: in vivo, mouse; details: healthy mice, 10 days, FIG. 12
# Method: Blood sampling and hematological analysis. Hematological analysis was carried out for mice treated with saline or acivicin for 10 days. Blood samples were collected from the heart of each anesthetized mouse via cardiac puncture. The complete blood cell counts were measured with an automated blood count analyzer (Hemavet, Drew Scientific Inc).
# chronic NOD MOG35-55 EAE = test: Immunohistochemistry of spinal cord in chronic NOD MOG35-55 EAE; type: in vivo, mouse
# [3] = cited from earlier work
# 2D2 T cells = test: Antigen-specific T-cell proliferation (BrdU, 2D2 T cells with MOG35-55-pulsed BMDMs); type: cell-based, mouse; details: 5, 0.5 or 0.05 μM, FIG. 14G, H
# Method: T-cell proliferation assay. For antigen-specific T cell proliferation, näive CD4+ T cells were magnetically sorted from the TCR-transgenic 2D2 mice using naïve CD4+ T cell isolation kits (Miltenyi Biotec). […]. For non-antigen-specific T cell proliferation, naïve CD4^+ T cells were treated with acivicin and stimulated with mouse T-activator CD3/CD28 Dynabeads (Thermo Fisher Scientific) for 3 d. Cells were then fixed, permeabilized, and stained with FITC-conjugated anti-BrdU (BrdU Flow Kits, BD Biosciences).
smiles,measurement,setting,value
"N[C@H](C(=O)O)[C@@H]1CC(Cl)=NO1 [Acivicin, (2S)-2-amino-2-[(5S)-3-chloro-4,5-dihydro-1,2-oxazol-5-yl] acetic acid]",IFN-γ-producing T cells,CD4+ T cells,selectively decreased
same,IL-17-producing T cells,CD4+ T cells,selectively decreased
same,IC50,"[1]; Rattus norvegicus, Microglia, 48 h, Table 1, dose response 0.001-20 μM, triplicates, primary rat microglia, 48 h, read-out: LPS IC50",1 µM
same,inhibition at 10 µM,"[1]; Rattus norvegicus, Microglia, 48 h, primary microglia HTS, LPS stimulation, increased cell size (>800 μm^2) as marker of activation, read-out: LPS % inhibition",93%
same,IC50,"[1]; Rattus norvegicus, Microglia, LPS-induced microglia activation, dose response, read-out: LPS IC50 (uM) (Suppl. Table 7)",1 µM
same,IC50,"[1]; Rattus norvegicus, Microglia, Table 7, read-out: LPS_IC50",1.66 µM
same,IC50,"[1]; Rattus norvegicus, Microglia, dose response, LPS-induced microglia activation, read-out: LPS IC50",1 µM
same,LPS-induced microglial activation,"[1]; dose-dependent, FIG. 6a",inhibited
same,GGT activity in SN after LPS injection,GGT,blocked
same,total cell blood count in vivo,[2],did not affect
same,demyelination (MBP),"chronic NOD MOG35-55 EAE; chronic phase, FIG. 8c",reduced
same,NADPH oxidase subunit gp91-phox,"chronic NOD MOG35-55 EAE; chronic phase, FIG. 8d",reduced
same,axonal damage (SMI-32),"chronic NOD MOG35-55 EAE; chronic phase, FIG. 8d",reduced
same,inducible nitric oxide synthase (iNOS),"chronic NOD MOG35-55 EAE; chronic phase, FIG. 8d",reduced
same,expression of GGT1,"chronic NOD MOG35-55 EAE; mouse, in vivo",reduced
same,toxicity in anti-cancer trials,[3],dose limiting toxicity
same,encephalitogenic T cell proliferation (BrdU) with APCs,2D2 T cells,suppressed

# Source: patent US20210330611A1, “THERAPY FOR NEUROLOGICAL DISEASES/DISORDERS” (priority 2020, published 2021)
